Results taken from ChEMBL document CHEMBL5518175, “Design, synthesis, and biological evaluation of HDAC6 inhibitors targeting L1 loop and serine 531 residue” (Eur J Med Chem, 2024).

Key:
[1] = molecular target: Histone deacetylase 1 (Homo sapiens, UniProt Q13547)
Description: Inhibition of HDAC1 (unknown origin) incubated for 30 mins by fluorescence plate reader assay

[2] = molecular target: T1, Protein deacetylase HDAC6 (Homo sapiens, UniProt Q9UBN7)
T1 sequence (Q9UBN7 whole entry): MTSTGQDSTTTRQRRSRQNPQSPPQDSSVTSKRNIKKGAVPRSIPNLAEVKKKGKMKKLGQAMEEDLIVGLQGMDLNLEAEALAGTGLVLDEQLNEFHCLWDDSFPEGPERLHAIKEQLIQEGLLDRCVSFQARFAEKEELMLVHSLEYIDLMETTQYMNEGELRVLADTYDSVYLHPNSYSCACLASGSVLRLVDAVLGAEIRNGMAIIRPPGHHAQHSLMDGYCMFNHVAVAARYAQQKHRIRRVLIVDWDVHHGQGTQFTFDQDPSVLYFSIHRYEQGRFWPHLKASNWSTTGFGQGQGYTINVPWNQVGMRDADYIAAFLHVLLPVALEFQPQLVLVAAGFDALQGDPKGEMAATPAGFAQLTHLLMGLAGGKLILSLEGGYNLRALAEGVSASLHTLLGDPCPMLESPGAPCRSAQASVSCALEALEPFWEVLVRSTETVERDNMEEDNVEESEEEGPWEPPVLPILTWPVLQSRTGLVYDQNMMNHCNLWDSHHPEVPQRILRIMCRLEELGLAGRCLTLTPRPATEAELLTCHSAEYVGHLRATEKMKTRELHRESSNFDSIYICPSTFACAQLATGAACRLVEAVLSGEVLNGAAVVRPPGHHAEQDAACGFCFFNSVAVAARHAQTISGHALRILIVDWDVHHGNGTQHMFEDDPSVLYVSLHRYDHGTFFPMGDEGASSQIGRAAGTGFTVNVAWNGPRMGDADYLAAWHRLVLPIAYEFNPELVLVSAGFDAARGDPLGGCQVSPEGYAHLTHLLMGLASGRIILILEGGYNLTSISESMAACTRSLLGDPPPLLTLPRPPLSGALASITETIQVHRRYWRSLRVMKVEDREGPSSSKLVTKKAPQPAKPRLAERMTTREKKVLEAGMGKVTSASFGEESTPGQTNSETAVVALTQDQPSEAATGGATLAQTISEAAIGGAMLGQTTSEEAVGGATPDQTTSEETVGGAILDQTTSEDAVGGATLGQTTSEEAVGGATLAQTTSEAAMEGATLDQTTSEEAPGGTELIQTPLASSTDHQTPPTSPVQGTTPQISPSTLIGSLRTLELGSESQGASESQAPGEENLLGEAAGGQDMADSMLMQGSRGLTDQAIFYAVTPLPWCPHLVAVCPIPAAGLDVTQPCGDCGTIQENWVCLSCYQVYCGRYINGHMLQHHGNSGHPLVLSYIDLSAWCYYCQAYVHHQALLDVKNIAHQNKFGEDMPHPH
Description: Inhibition of HDAC6 (unknown origin) incubated for 30 mins by fluorescence plate reader assay

[3] = molecular target: Histone deacetylase 2 (Homo sapiens, UniProt Q92769)
Chain of Histone deacetylase 2 (Q92769 whole entry): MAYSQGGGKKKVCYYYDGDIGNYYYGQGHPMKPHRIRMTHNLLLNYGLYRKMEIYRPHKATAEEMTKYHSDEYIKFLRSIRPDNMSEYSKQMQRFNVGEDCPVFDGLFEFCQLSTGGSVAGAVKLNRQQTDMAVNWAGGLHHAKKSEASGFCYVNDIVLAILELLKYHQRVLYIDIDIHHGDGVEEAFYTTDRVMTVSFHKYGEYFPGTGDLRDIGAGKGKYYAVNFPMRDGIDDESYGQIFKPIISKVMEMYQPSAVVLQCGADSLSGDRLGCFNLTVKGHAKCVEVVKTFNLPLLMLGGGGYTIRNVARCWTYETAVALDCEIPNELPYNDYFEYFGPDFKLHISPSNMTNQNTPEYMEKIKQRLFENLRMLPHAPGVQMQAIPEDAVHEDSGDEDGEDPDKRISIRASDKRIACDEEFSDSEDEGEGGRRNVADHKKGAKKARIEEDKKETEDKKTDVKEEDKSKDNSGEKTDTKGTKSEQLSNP
Description: Inhibition of HDAC2 (unknown origin) incubated for 30 mins by fluorescence plate reader assay

[4] = molecular target: Histone deacetylase 3 (Homo sapiens, UniProt O15379); assay: Inhibition of HDAC3 (unknown origin) incubated for 30 mins by fluorescence plate reader assay
Chain of Histone deacetylase 3 (O15379 whole entry): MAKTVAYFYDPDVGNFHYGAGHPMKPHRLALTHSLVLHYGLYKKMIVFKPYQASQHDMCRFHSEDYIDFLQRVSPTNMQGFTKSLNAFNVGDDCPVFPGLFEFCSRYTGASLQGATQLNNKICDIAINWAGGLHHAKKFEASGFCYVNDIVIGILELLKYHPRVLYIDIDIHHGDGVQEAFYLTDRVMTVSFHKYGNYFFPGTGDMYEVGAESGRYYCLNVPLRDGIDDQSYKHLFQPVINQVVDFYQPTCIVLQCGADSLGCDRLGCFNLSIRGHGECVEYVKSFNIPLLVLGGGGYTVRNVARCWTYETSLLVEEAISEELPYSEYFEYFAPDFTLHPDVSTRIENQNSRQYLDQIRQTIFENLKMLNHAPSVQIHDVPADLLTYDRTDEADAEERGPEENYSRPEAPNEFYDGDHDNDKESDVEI

[5] = molecular target: T2, Histone deacetylase 8 (Homo sapiens, UniProt Q9BY41); assay: Inhibition of HDAC8 (unknown origin) incubated for 30 mins by fluorescence plate reader assay
T2 sequence (Q9BY41 whole entry): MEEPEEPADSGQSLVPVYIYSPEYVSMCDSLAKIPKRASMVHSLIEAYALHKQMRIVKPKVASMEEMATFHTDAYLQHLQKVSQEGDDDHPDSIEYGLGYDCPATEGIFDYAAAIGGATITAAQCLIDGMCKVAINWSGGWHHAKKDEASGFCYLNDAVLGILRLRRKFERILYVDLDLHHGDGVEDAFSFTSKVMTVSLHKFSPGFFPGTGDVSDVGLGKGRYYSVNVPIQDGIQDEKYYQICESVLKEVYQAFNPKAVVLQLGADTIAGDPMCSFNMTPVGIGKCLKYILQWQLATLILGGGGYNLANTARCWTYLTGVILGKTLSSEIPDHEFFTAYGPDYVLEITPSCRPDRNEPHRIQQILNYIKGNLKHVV

[6] = molecular target: Histone deacetylase 4 (Homo sapiens, UniProt P56524); assay: Inhibition of HDAC4 (unknown origin) incubated for 30 mins by fluorescence plate reader assay
Chain of Histone deacetylase 4 (P56524 whole entry): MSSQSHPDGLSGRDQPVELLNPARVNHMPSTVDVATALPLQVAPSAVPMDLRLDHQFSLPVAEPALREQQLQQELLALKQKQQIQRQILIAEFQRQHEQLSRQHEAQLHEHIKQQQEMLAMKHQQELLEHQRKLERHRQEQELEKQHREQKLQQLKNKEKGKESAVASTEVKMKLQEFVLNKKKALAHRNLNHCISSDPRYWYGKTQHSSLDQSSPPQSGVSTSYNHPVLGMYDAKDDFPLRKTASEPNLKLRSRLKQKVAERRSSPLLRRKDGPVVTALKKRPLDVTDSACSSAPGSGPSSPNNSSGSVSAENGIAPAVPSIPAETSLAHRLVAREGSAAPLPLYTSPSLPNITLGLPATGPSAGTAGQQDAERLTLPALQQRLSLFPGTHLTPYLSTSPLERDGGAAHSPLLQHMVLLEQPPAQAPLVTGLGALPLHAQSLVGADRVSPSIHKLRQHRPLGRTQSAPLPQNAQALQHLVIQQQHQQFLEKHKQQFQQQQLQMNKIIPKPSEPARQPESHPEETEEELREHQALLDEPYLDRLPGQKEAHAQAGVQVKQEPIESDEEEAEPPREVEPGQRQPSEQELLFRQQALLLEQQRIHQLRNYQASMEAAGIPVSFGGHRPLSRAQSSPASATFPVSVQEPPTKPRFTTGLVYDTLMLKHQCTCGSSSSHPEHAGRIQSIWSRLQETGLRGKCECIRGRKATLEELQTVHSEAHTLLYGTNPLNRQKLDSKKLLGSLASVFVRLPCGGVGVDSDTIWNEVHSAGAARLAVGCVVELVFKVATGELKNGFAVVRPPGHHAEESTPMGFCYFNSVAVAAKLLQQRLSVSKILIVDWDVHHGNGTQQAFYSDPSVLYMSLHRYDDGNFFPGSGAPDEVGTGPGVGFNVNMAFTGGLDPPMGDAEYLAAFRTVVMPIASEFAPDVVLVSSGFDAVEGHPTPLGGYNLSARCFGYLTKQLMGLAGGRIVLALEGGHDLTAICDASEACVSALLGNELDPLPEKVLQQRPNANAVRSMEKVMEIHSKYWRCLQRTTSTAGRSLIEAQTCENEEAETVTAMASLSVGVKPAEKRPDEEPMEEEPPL

[7] = molecular target: Histone deacetylase 5 (Homo sapiens, UniProt Q9UQL6); assay: Inhibition of HDAC5 (unknown origin) incubated for 30 mins by fluorescence plate reader assay
Chain of Histone deacetylase 5 (Q9UQL6 whole entry): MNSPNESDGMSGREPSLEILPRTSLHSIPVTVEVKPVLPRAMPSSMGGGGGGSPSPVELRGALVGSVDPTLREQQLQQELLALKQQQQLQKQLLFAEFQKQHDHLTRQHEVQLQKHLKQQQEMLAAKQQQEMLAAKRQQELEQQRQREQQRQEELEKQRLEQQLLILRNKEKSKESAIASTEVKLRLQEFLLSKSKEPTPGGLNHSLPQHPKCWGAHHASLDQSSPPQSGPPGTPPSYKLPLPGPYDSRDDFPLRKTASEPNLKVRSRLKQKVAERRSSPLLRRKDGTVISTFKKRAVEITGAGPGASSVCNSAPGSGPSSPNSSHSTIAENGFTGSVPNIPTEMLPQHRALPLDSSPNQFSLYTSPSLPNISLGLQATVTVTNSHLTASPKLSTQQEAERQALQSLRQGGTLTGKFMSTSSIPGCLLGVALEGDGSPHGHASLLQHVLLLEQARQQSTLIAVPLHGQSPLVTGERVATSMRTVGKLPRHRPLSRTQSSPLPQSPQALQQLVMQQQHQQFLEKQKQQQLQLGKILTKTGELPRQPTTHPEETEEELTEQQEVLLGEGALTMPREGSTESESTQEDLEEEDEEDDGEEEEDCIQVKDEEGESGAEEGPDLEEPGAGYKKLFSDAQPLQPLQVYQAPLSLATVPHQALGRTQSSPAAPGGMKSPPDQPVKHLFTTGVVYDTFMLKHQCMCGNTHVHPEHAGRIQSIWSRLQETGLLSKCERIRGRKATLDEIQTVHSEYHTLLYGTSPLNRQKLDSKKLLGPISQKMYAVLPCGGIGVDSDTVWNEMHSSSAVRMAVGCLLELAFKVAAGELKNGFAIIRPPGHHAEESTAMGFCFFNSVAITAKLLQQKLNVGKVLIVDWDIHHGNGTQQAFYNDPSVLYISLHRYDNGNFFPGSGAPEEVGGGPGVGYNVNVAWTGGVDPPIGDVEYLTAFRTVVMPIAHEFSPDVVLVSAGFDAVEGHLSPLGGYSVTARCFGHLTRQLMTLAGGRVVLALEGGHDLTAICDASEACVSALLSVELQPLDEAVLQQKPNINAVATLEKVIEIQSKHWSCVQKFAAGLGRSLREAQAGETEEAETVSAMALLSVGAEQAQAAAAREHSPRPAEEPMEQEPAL

[8] = molecular target: T3, Histone deacetylase 7 (Homo sapiens, UniProt Q8WUI4); assay: Inhibition of HDAC7 (unknown origin) incubated for 30 mins by fluorescence plate reader assay
T3 sequence (Q8WUI4 whole entry): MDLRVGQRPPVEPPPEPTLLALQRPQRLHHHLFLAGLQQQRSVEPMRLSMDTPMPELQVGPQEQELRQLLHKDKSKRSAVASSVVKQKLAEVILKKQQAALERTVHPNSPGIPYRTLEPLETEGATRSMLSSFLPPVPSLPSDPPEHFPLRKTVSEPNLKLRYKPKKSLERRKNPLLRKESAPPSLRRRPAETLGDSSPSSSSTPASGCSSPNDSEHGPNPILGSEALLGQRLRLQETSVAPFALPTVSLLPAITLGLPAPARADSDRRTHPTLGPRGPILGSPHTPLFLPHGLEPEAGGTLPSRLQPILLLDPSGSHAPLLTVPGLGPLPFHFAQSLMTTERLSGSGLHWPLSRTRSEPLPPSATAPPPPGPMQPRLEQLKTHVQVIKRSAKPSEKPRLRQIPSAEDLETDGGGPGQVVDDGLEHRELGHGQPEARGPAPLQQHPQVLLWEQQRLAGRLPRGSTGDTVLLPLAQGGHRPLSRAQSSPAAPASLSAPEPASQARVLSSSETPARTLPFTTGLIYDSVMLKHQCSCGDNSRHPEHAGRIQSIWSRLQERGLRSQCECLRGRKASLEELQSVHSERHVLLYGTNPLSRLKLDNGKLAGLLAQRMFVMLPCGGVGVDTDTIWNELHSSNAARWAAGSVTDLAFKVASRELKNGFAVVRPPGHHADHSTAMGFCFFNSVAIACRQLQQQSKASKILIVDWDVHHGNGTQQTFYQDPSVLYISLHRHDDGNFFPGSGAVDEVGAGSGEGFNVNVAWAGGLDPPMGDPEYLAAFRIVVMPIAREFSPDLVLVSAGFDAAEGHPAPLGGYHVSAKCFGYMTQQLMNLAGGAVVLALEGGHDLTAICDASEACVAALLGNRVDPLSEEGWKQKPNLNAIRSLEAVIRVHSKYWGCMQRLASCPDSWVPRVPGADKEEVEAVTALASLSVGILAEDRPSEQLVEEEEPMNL

[9] = molecular target: Histone deacetylase 9 (Homo sapiens, UniProt Q9UKV0); assay: Inhibition of HDAC9 (unknown origin) incubated for 30 mins by fluorescence plate reader assay
Chain of Histone deacetylase 9 (Q9UKV0 whole entry): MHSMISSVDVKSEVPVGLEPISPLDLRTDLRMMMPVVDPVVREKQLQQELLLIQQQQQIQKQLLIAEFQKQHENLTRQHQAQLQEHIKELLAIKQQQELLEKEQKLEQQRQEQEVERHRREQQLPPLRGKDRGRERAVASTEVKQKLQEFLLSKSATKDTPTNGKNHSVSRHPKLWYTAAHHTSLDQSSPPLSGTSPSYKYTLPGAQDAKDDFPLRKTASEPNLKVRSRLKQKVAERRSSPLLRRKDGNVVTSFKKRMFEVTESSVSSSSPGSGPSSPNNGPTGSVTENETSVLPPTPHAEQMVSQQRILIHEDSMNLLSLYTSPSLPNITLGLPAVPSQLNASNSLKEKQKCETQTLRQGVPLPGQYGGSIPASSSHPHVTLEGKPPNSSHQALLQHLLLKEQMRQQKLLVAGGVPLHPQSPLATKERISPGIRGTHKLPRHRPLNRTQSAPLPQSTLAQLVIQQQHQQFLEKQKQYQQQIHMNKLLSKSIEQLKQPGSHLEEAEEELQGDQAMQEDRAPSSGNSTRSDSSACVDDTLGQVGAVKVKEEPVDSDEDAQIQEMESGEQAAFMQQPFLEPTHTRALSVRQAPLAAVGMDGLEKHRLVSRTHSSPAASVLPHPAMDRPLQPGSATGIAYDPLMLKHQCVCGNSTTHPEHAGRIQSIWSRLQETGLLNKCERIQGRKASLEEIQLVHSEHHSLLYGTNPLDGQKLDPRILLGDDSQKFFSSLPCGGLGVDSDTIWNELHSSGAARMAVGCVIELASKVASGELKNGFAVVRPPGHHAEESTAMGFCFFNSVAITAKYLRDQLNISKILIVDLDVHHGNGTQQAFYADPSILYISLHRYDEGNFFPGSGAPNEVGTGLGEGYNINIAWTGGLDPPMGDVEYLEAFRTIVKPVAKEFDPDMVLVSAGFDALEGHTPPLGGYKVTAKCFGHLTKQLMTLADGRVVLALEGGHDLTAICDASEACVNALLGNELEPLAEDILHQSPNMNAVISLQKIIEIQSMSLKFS

[10] = molecular target: T4, Polyamine deacetylase HDAC10 (Homo sapiens, UniProt Q969S8); assay: Inhibition of HDAC10 (unknown origin) incubated for 30 mins by fluorescence plate reader assay
T4 sequence (Q969S8 whole entry): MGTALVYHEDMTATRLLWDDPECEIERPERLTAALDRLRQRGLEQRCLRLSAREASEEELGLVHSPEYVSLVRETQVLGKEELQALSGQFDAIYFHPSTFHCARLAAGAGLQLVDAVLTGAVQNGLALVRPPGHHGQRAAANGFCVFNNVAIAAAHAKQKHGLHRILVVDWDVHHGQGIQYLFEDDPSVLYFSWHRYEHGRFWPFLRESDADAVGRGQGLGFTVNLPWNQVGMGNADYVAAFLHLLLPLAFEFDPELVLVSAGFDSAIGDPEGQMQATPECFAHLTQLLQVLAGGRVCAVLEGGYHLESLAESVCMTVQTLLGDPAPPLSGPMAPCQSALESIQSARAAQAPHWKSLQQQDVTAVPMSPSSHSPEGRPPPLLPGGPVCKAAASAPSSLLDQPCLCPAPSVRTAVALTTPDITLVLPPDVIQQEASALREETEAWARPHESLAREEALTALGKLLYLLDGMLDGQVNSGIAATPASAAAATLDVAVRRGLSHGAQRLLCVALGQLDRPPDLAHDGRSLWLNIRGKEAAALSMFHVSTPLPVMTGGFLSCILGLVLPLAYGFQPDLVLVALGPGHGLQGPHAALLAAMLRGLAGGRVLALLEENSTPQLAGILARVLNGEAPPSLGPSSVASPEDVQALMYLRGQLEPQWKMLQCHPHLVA

[11] = molecular target: T5, Histone deacetylase 11 (Homo sapiens, UniProt Q96DB2); assay: Inhibition of HDAC11 (unknown origin) incubated for 30 mins by fluorescence plate reader assay
T5 sequence (Q96DB2 whole entry): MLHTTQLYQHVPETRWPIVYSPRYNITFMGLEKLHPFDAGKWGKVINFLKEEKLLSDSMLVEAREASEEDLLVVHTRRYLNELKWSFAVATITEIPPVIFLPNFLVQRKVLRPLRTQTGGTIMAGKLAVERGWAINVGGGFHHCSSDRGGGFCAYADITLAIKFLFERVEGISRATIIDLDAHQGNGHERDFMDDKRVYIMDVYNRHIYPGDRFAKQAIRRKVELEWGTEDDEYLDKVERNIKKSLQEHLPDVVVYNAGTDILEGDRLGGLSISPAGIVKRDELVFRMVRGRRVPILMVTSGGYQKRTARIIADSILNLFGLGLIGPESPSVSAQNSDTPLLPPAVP

Chain of Histone deacetylase 1 (Q13547 whole entry): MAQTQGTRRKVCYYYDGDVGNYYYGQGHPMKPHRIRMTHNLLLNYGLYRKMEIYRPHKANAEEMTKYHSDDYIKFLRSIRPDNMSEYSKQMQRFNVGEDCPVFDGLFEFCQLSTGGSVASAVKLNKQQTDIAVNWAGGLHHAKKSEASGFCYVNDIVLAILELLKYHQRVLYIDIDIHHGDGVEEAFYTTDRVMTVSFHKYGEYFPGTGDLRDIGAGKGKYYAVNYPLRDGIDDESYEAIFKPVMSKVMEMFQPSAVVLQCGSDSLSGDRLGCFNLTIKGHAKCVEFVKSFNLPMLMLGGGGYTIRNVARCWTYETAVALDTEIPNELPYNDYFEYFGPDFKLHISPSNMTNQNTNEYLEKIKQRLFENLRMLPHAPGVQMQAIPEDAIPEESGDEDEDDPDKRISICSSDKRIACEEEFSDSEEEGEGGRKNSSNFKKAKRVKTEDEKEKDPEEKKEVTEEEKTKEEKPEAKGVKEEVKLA

SMILES	IC50 [1] [nM]	IC50 [2] [nM]	IC50 [3] [nM]	IC50 [4] [nM]	IC50 [5] [nM]	IC50 [6] [nM]	IC50 [7] [nM]	IC50 [8] [nM]	IC50 [9] [nM]	IC50 [10] [nM]	IC50 [11] [nM]
O=C(NO)c1ccc(CNC(=O)c2ccccc2)cc1	941	87									
O=C(NO)c1ccc(CN(Cc2ccccc2)C(=O)c2ccccc2)cc1	850		> 10000	1930	4480	> 10000	> 10000	4950	> 10000	1410	> 10000
